According to EP2808342B1, “Medium for in-vitro toxicity testing and in-vitro toxicity test method using the same” (priority 2013, dated 2014):

Assays:
N2a cells [1] = experiment: Toxicity test (CCK-8 cell proliferation assay) on cells cultured on plates not coated with REP; format: cell-based; details: Cultured Cell of C. Ex. 1 (B)
Description: (§1) N2a cells ([…], purchased from the ATCC, USA) were seeded at a density of 5x10^5 cells/well into the culture plates coated with REP prepared in Example 1 (hereinafter referred to as "REP-plate"). The cell culture medium was Eagle's Minimum Essential Medium (EMEM) supplemented with 2 mM glutamine, 1 mM sodium pyruvate, 1.5 g/l sodium bicarbonate, 100 units/ml penicillin and 100 µg/ml streptomycin. The REP-plates where N2a cells were seeded were incubated for 3 days at 37°C in a 5% CO2 atmosphere with humidity of 95% to afford the formation of 3D cell clusters.
Cells were cultured in the same manner as in Example 2, with the exception that the plates were not coated with REP.
(§2) To the cell clusters obtained in Example 2 or the cells obtained in Comparative Example 1 was added a solution of PFOA (perfluorooctanoic acid, Mw 414.1 g/mol, Sigma-Aldrich, 171468-5G, 96%) with a concentration of 5 µM, 20 µM, 50 µM, 100 µM, 200 µM, 300 µM, 400 µM, 500 µM, 600 µM, 700 µM, 800 µM, 900 µM, 1,000 µM or 2,000 µM. After 3, 24 or 48 hrs of incubation, the cells were assayed for proliferation using a cell counting kit-8 (CCK-8, Dojindo, Japan).
(§3) The PFOA solution was made by dissolving PFOA in dimethyl sulfoxide (DMSO, Sigma-Aldrich, USA) at a final concentration of 5 µM, 20 µM, 50 µM, 100 µM, 200 µM, 300 µM, 400 µM, 500 µM, 600 µM, 700 µM, 800 µM, 900 µM, 1,000 µM or 2,000 µM.
(§4) For the cell proliferation assay, absorbance (OD) at 450 nm was measured on an amicroplate reader (Multiskan, Thermo USA). From the measurements, inhibitory concentration (IC50) values were calculated using TOXCALC 5.0 (Tidepool Scientific Software, USA).
(§5) A solution of PFOS (perfluorooctane sulfonates; Mw 538.2, Sigma-Aldrich, 77282-10G, ≥98.0 (T)) with a concentration of 5 µM, 20 µM, 50 µM, 100 µM, 200 µM, 300 µM, 400 µM, 500 µM, 600 µM, 700 µM, 800 µM, 900 µM, 1,000 µM or 2, 000 µM was added to the cell clusters obtained in Example 2 and to the cells obtained in Comparative Example 1. After 3, 24 or 48 hrs of incubation, the cells were assayed for proliferation using a cell counting kit-8 (CCK-8, Dojindo, Japan).
(§6) The PFOS solution was made by dissolving PFOS in dimethyl sulfoxide (DMSO, Sigma-Aldrich, USA) at a final concentration of 5 µM, 20 µM, 50 µM, 100 µM, 200 µM, 300 µM, 400 µM, 500 µM, 600 µM, 700 µM, 800 µM, 900 µM, 1,000 µM or 2,000 µM.

N2a cells [2] = experiment: Toxicity test (CCK-8 cell proliferation assay) on 3D cell clusters grown on REP-coated plates; format: cell-based; details: Cell Cluster of Ex. 2 (A), REP-plate
Description: REP was dissolved at a concentration of 10 µM in phosphate buffered saline (PBS), and the 10 µM REP solution was aliquoted in an amount of 50 µl per well into 96-well polystyrene plates and incubated for 1 hr at 37°C. The supernatant was removed from each well to leave REP to adhere to the plates.
as §1, §2, §3, §4, §5, §6

[3] = Mus musculus, N2a, 3 hrs incubation
[4] = Mus musculus, N2a, 24 hrs incubation
[5] = Mus musculus, N2a, 48 hrs incubation

Structure (SMILES)	IC50 (N2a cells [1]; [3])	IC50 (N2a cells [1]; [4])	IC50 (N2a cells [1]; [5])	IC50 (N2a cells [2]; [3])	IC50 (N2a cells [2]; [4])	IC50 (N2a cells [2]; [5])	IC50 (N2a cells [1]; 3 hrs incubation)	IC50 (N2a cells [1]; 24 hrs incubation)	IC50 (N2a cells [1]; 48 hrs incubation)	IC50 (N2a cells [2]; 3 hrs incubation)	IC50 (N2a cells [2]; 24 hrs incubation)	IC50 (N2a cells [2]; 48 hrs incubation)
O=C(O)C(F)(F)C(F)(F)C(F)(F)C(F)(F)C(F)(F)C(F)(F)C(F)(F)F [PFOA, perfluorooctanoic acid]	511 µM	389 µM	310 µM	632 µM	495 µM	423 µM	–	–	–	–	–	–
O=S(=O)(O)C(F)(F)C(F)(F)C(F)(F)C(F)(F)C(F)(F)C(F)(F)C(F)(F)C(F)(F)F [PFOS, perfluorooctane sulfonates]	–	–	–	–	–	–	196 µM	219 µM	220 µM	471 µM	355 µM	300 µM
